Where a name gives a salt, the structure may show the parent alone.
Experiment: collision cross section in nitrogen (drift tube, single-field); higher = larger gas-phase ion size
[1] = ion type: [M+Na], ion source: ESI, ion mode: Positive
[2] = ion type: [M-H], ion source: ESI, ion mode: Negative
[3] = ion type: [M+H], ion source: APCI, ion mode: Positive
[4] = ion type: [M+H], ion source: ESI, ion mode: Positive
[5] = ion type: [M+], ion source: APCI, ion mode: Positive
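Also: chemical standards at 10 µM analysed by drift tube IMS-QTOF MS in about 3.95 torr nitrogen, mean of duplicate injections differing ≤1%, mass error below 10 ppm.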

SMILES	collision cross section in nitrogen [1]	collision cross section in nitrogen [2]	collision cross section in nitrogen [3]	collision cross section in nitrogen [4]	collision cross section in nitrogen [5]
CC1(C)O[C@@H]2[C@@H](CO[C@@]3(COS(N)(=O)=O)OC(C)(C)O[C@@H]23)O1 [Topiramate]	171.7 Å²	174.7 Å²			
Cc1cc(Br)ccc1NC(=O)CCl [2-Chloro-N-(2-methyl-4-bromophenyl)acetamide]		146 Å²			
O=[N+]([O-])c1cc(N(CCO)CCO)ccc1NCCO [HC Blue 2]	177.5 Å²		171.3 Å²	171.1 Å²	
Oc1ccc2c(c1)Cc1ccccc1-2 [2-Hydroxyfluorene]		141.5 Å²			
Cc1cnc2c(C(=O)O)c(Cl)ccc2c1 [Quinmerac]	158 Å²		139.6 Å²	140.7 Å²	
CC(=O)Nc1ccc(N=Nc2c(S(=O)(=O)O)cc3cc(S(=O)(=O)O)cc(NC(C)=O)c3c2O)cc1 [C.I. Food Red 11]		231.8 Å²			
COc1cc(Cl)c(OC)cc1N [2,5-Dimethoxy-4-chloroaniline]				145 Å²	133 Å²
O=C1C=CC(=O)N1c1ccc(Cc2ccc(N3C(=O)C=CC3=O)cc2)cc1 [Bismaleimide]	182.7 Å²	174.3 Å²	197.5 Å²		
CCN(CC)c1ccc(C=NN(c2ccccc2)c2ccccc2)cc1 [4-[(Diphenylhydrazinylidene)methyl]-N,N-diethylaniline]			189.8 Å²	200.7 Å²	
C[C@]12CC[C@H](O)C[C@H]1CC[C@@H]1[C@@H]2C[C@@H](O)[C@]2(C)[C@@H](C3=CC(=O)OC3)CC[C@]12O [Digoxigenin]	220.7 Å²				
CCCCC(CC)COC(=O)CCCCC(=O)OCc1ccccc1 (stereo unspecified) [Benzyloctyl adipate]	191.9 Å²				
Nc1ccc(Sc2ccc(N)cc2)cc1 [4,4'-Thiodianiline]			164.9 Å²	164.4 Å²	148.1 Å²
CCCCOC(=O)c1ccccc1C(=O)OCCCC [Dibutyl 1,2-benzenedicarboxylate]	182.9 Å²				
OC(Cn1cncn1)(c1ccc(F)cc1)c1ccccc1F (stereo unspecified) [Flutriafol]	183.1 Å²			167.5 Å²	
Clc1ccccc1CN1CCc2sccc2C1 [Ticlopidine hydrochloride]			156.4 Å²	156.8 Å²	
CCN(CC)c1nc(C)cc(OP(=S)(OC)OC)n1 [Pirimiphos-methyl]			165.5 Å²	167.9 Å²	
COc1cc(OC)nc(Sc2cccc(Cl)c2C(=O)O)n1 [Pyrithiobac]	173.3 Å²		167.1 Å²	166.7 Å²	
O=S(=O)(O)c1cc(O)c(O)c(S(=O)(=O)O)c1 [Tiron]		145.8 Å²			
C/C(=N\C#N)N(C)Cc1ccc(Cl)nc1 [Acetamiprid]	157.7 Å²	149.1 Å²	155.1 Å²	154.6 Å²	

SMILES	collision cross section in nitrogen [1]	collision cross section in nitrogen [2]	collision cross section in nitrogen [3]	collision cross section in nitrogen [4]	collision cross section in nitrogen [5]
Nc1nc2ccccc2[nH]1 [2-Aminobenzimidazole]		123.5 Å²	126.2 Å²	126.8 Å²	123.9 Å²
Oc1cc(Cl)c(Cl)cc1Cl [2,4,5-Trichlorophenol]		128.7 Å²			
CC(C)CCCC(=O)O [5-Methylhexanoic acid]		136.9 Å²			
CCCCc1c(C)nc(NCC)nc1O [Ethirimol]	167.3 Å²	155.2 Å²	152.1 Å²	152 Å²	
CCCCOCCOC(=O)COc1nc(Cl)c(Cl)cc1Cl [Triclopyr 2-butoxyethyl ester]	176.3 Å²				
O=C1c2c(O)ccc(Nc3ccc(CCO)cc3)c2C(=O)c2c([N+](=O)[O-])ccc(O)c21 [C.I. Disperse Blue 27]	189.9 Å²	201.7 Å²			
CC(C)(C)NC(=O)[C@@H]1CN(Cc2cccnc2)CCN1C[C@@H](O)C[C@@H](Cc1ccccc1)C(=O)N[C@H]1c2ccccc2C[C@H]1O [Indinavir sulfate]	246.1 Å²		262.9 Å²	262.3 Å²	
CC(O)COC(C)COC(C)CO (stereo unspecified) [Tripropylene glycol]	144.9 Å²				
CNC(=O)ON=CC(C)(C)S(C)=O (stereo unspecified) [Aldicarb sulfoxide]	147.4 Å²				
Cc1cc(C)c(C=C2C(=O)Nc3ccccc32)[nH]1 [SU-5416]		158.4 Å²	153.9 Å²	154.2 Å²	152.2 Å²
O=C1OC2(c3ccc(O)cc3Oc3cc(O)ccc32)c2ccccc21 [Fluorescein]	190.6 Å²	176.8 Å²	174.2 Å²	174.2 Å²	
CC(=O)c1ccc2c(c1)[C@H](NC(=O)c1ccc(F)cc1)[C@@H](O)C(C)(C)O2 [Carabersat]	194.4 Å²	186 Å²	184.1 Å²	183.9 Å²	
O=C(NS(=O)(=O)/C=C/c1cccs1)c1ccc(F)cc1Br	189 Å²	178 Å²			
N[C@@H](CCC(=O)O)C(=O)O [L-Glutamic acid hydrochloride]		125.9 Å²			
CCCC(C)(COC(N)=O)COC(=O)NC(C)C (stereo unspecified) [Carisoprodol]	172.2 Å²				
CCCN(CCC)c1c([N+](=O)[O-])cc(C(C)C)cc1[N+](=O)[O-] [Isopropalin]		175.1 Å²	172.4 Å²		
CCOc1nc2cccc(C(=O)OC(C)OC(=O)OC3CCCCC3)c2n1Cc1ccc(-c2ccccc2-c2nnn[nH]2)cc1 (stereo unspecified) [Candesartan cilexetil]	252.1 Å²	244 Å²	241.9 Å²	242.2 Å²	
Cc1cc(CCC(=O)OCCOCCOCCOC(=O)CCc2cc(C)c(O)c(C(C)(C)C)c2)cc(C(C)(C)C)c1O	236.4 Å²	237.8 Å²	233.4 Å²		234.2 Å²
CCCCCCCCP(=O)(O)O [Octylphosphonic acid]		149.9 Å²			

SMILES	collision cross section in nitrogen [1]	collision cross section in nitrogen [2]	collision cross section in nitrogen [3]	collision cross section in nitrogen [4]	collision cross section in nitrogen [5]
O=[N+]([O-])c1ccc(-c2nnc(O)o2)o1 [5-(5-Nitro-2-furyl)-1,3,4-oxadiazole-2-ol]		135.2 Å²			
CC(C)CCCCCCCCCCCCCCC(=O)O [16-Methylheptadecanoic acid]		177.5 Å²			
C#C[C@]1(O)CC[C@H]2[C@@H]3CCC4=CC(=O)CC[C@@H]4[C@H]3CC[C@@]21C [Norethindrone]				178.1 Å²	
Clc1ccc(-c2nc3sccn3c2/C=N/OCc2ccc(Cl)c(Cl)c2)cc1 [CITCO]		199 Å²	200.6 Å²	200.2 Å²	
CCOC(=O)CCCCCCCCC(=O)OCC [Diethyl decanedioate]	171.5 Å²				
COS(=O)(=O)c1ccccc1 [Methyl benzenesulphonate]		135 Å²			
CCNc1nc(Cl)nc(NC(C)(C)C#N)n1 [Cyanazine]			155.6 Å²	155.4 Å²	
CCCCCCCCCCCSCC(=O)O [3-Thiatetradecanoic acid]		162.7 Å²			
COc1ccc(OC(F)(F)F)cc1CN[C@H]1CCCN[C@H]1c1ccccc1	190.7 Å²		182.7 Å²	183.3 Å²	
CCOc1ccc2[nH]cc(C(=O)NCc3ccccc3)c(=O)c2n1	187 Å²	183.9 Å²	184.3 Å²	183.9 Å²	
CC(C)(c1ccccc1)c1cc(-n2nc3ccccc3n2)c(O)c(C(C)(C)c2ccccc2)c1	223.4 Å²	222.1 Å²	218 Å²	218 Å²	
OCCOCCN1CCN(C2=Nc3ccccc3Sc3ccccc32)CC1 [Quetiapine fumarate]	188.6 Å²	183.5 Å²	192.1 Å²	192.3 Å²	
N=C(NCCCCCCNC(=N)NC(=N)Nc1ccc(Cl)cc1)NC(=N)Nc1ccc(Cl)cc1 [Chlorhexidine diacetate]	228.3 Å²	233.6 Å²	222.8 Å²	224.1 Å²	
CCCCOC(=O)C(C)CC (stereo unspecified) [Butyl 2-methylbutyrate]		146.8 Å²			
O=C(O)c1ccccc1C(=O)OC1CCCCC1 [Monocyclohexyl phthalate]	171.7 Å²	159.9 Å²			
CCCC(=O)c1cc(O)c(O)cc1O [2',4',5'-Trihydroxybutyrophenone]		141.3 Å²			
CCc1cc(C(N)=S)ccn1 [Ethionamide]		135.2 Å²	137.5 Å²		
COc1ccc2nc(N)sc2c1 [6-Methoxy-2-benzothiazolamine]			136.6 Å²	136.6 Å²	

From the supplement of paper PMC12317010
